Read-outs that look alike come from different tables or passages of the source.
What was measured:
[1] = tested on: cells; experiment: Measurement of lactate change amount within cells; format: cell-based
Protocol: Cells were treated with 400 μl of 6% PCA, and then collected and extracted. Centrifugation (13,000 rpm, 10 min) was performed. A precipitate was dried using a Speed-Vac and then a weight of dried precipitate was measured. A supernatant was neutralized using 400 μl of 1 M KOH and a final volume thereof was adjusted to 1 ml using 0.33 M KH2PO4/K2HPO4, pH 7.5. Centrifugation (13,000 rpm, 10 min) was performed and the amount of lactate in a supernatant was measured (Megazyme, K-LATE).

[2] = biological target: NQO1 protein (Homo sapiens, UniProt P15559); experiment: NQO1 activity measurement (cytochrome C reduction); format: biochemical
Chain of NQO1 protein (P15559 whole entry, species assumed): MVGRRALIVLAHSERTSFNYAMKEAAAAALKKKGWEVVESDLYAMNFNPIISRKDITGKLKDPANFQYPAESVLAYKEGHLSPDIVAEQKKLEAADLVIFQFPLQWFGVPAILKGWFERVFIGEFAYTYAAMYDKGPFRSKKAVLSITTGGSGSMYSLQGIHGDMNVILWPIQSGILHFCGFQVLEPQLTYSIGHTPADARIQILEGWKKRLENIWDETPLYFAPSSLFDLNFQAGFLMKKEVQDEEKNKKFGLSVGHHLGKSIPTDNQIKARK
Protocol: An enzyme reaction solution included 25 mM Tris/HCl (pH 7.4), 0.14% bovine serum albumin, 200 μM NADH, 77 μM cytochrome C, and 5 ng of NQO1 protein. Enzymatic reaction was initiated by adding NADH and performed at 37° C. In this regard, a reaction rate was measured by observing absorbance, which was increased due to reduction of cytochrome C, at 550 nm for 10 minutes and NQO1 activity was represented as an amount of reduced cytochrome C [nmol cytochrome C reduced/min/μg protein].
Extinction coefficient for cytochrome C:21.1 mmol/L/cm=21.1 μmol/ml/cm

[3] = 5 μM, 37° C., absorbance at 550 nm for 10 minutes, 200 μM NADH, 77 μM cytochrome C, 5 ng NQO1 protein

SMILES	Lactate change amount within cells (nmol/mg cell) [1] [nmol/mg cell]	NQO1 activity (5 μM, [nmol cytochrome C reduced/min/μg protein]) [2, 3]	NQO1 activity (5 μM, [nmol cytochrome C reduced/min/μg protein]) [2]
CC(C)(C)c1nc2c(o1)C(=O)C(=O)c1cccnc1-2 [Example 40]	8.1	527.4 nmol cytochrome C reduced/min/μg protein	–
CC(C)(C)c1nc2c(o1)-c1cccc(O)c1C(=O)C2=O [Example 17, 2-tert-butyl-6-hydroxynaphtho[2,1-d]oxazole-4,5-dione]	–	7.4 nmol cytochrome C reduced/min/μg protein	–
O=C1C(=O)c2nc(-c3ccccc3)oc2-c2ccccc21 [Example 3, 2-phenylnaphtho[2,1-d]oxazole-4,5-dione]	8.1	255.5 nmol cytochrome C reduced/min/μg protein	–
O=C1C(=O)c2nc(CNc3ccc(F)cc3)oc2-c2ccccc21 [Example 43]	4.4	–	263.0 nmol cytochrome C reduced/min/μg protein
CN(Cc1nc2c(o1)-c1ccccc1C(=O)C2=O)c1ccc(F)cc1 [Example 47]	7.6	227.5 nmol cytochrome C reduced/min/μg protein	–
CC(C)(C)c1nc2c(o1)C(=O)C(=O)c1cc(Cl)ccc1-2 [Example 31, 2-tert-butyl-7-chloronaphtho[1,2-d]oxazole-4,5-dione]	10.9	–	–
CC(C)c1nc2c(o1)-c1c(N)cccc1C(=O)C2=O [Example 13]	–	68.6 nmol cytochrome C reduced/min/μg protein	–
COc1cccc2c1C(=O)C(=O)c1nc(C(C)C)oc1-2 [Example 10, 2-isopropyl-6-methoxynaphtho[2,1-d]oxazole-4,5-dione]	11.5	20.7 nmol cytochrome C reduced/min/μg protein	–
Cc1cc(=O)[nH]c2c1-c1oc(C(C)C)nc1C(=O)C2=O [Example 14, 2-isopropyl-9-methyloxazolo[5,4-f]quinoline-4,5,7(6H)-trione]	–	–	104.2 nmol cytochrome C reduced/min/μg protein
CC(C)(C)c1nc2c(o1)-c1c(N)cccc1C(=O)C2=O [Example 19]	–	0.4 nmol cytochrome C reduced/min/μg protein	–
COc1cccc2c1-c1oc(CN(C)C)nc1C(=O)C2=O [Example 11, 2-((dimethylamino)methyl)-9-methoxynaphtho[2,1-d]oxazole-4,5-dione]	6.6	–	–
CC(C)(C)c1nc2c(o1)-c1c([N+](=O)[O-])ccc(O)c1C(=O)C2=O [Example 23, 2-tert-butyl-6-hydroxy-9-nitronaphtho[2,1-d]oxazole-4,5-dione]	–	60.9 nmol cytochrome C reduced/min/μg protein	–
COc1ccc([N+](=O)[O-])c2c1C(=O)C(=O)c1nc(C(C)(C)C)oc1-2 [Example 22, 2-tert-butyl-6-methoxy-9-nitronaphtho[2,1-d]oxazole-4,5-dione]	–	102.5 nmol cytochrome C reduced/min/μg protein	–
COc1c([N+](=O)[O-])ccc2c1C(=O)C(=O)c1nc(C(C)(C)C)oc1-2 [Example 21, 2-tert-butyl-6-methoxy-7-nitronaphtho[2,1-d]oxazole-4,5-dione]	–	40.3 nmol cytochrome C reduced/min/μg protein	–
CC(C)(C)c1nc2c(o1)-c1c(O)cccc1C(=O)C2=O [Example 25, 2-tert-butyl-9-hydroxynaphtho[2,1-d]oxazole-4,5-dione]	–	23.5 nmol cytochrome C reduced/min/μg protein	–
COc1cccc2c1C(=O)C(=O)c1nc(C(C)(C)C)oc1-2 [Example 16, 2-tert-butyl-6-methoxynaphtho[2,1-d]oxazole-4,5-dione]	–	4.2 nmol cytochrome C reduced/min/μg protein	–

From US10927085B2, “1,2-naphthoquinone based derivative and method of preparing the same” (HUEN Co., Ltd., priority 2013, dated 2021)
